The source of these data is patent US12036241B2, “Compositions and methods for immune cell modulation in adoptive immunotherapies” (Fate Therapeutics, Inc., priority 2017, dated 2024).

Entries after “also recorded” stand apart in the source; their conditions may differ.

One assay concerns CD8+ T cells. As to the kind of experiment: Cytokine production (IFNγ, IL-2, TNFα) after PMA/ionomycin, intracellular staining. It counts as cell-based, human. The note with it: PMA/ionomycin 4 h; for increase of IL-2 only subpopulation / increase of IFNγ+ only subpopulation: FIG. 3D. The protocol:
The ability of T cells to respond to a variety of stimuli can be important to their function. The capacity of T cells to produce multiple cytokines in response to non-specific stimulation is a measure of their ‘multifunctionality’. To assess whether compounds affect this ‘multifunctional’ response, the ability of modulated T cells to produce interferon-γ (IFNγ), IL-2 and/or TNFα post-stimulation was determined. After CD8^+ T cell treatment with each of the selected compounds, cells were stimulated with a mixture of PMA/ionomycin for four hours. Following stimulation, cytokine production was measured using intracellular cytokine staining with antibodies recognizing these cytokines conjugated to different fluorophores. Fluorescence was measured using flow cytometry. Cell were defined as multifunctional if they produced two or more cytokines. The proportion of T cell subsets that produce specific single, double or triple cytokines was examined and compared to cells without modulation using a selected compound.
The ability of T cells to respond to a variety of stimuli is important for their function. The capacity of T cells to produce multiple cytokines in response to non-specific stimulation is a measure of their “multifunctionality”. To assess whether selected compounds affect this “multifunctional” response in view of their phenotype skewing effect on the treated cells, the ability of treated cells to produce interferon-γ (IFNγ), IL-2 and TNFα post-stimulation was determined. After treatment of CD8+ T cells with a compound from Table 1, cells were stimulated with a mixture of PMA/ionomycin for four hours. Following stimulation, cytokine production was measured by intracellular cytokine staining with fluorescence-emitting antibodies recognizing these cytokines conjugated to different fluorophores. Fluorescence was measured using flow cytometry. Cells were defined as multifunctional if they produced at least two of the three cytokines.

The subject of assay [1] is T cells from healthy donors. Put plainly: Phenotypic profiling of T cells: CCR7, CD62L, CD27 surface markers by flow cytometry. It counts as cell-based, human. The settings on record: FIG. 1A; for Tcm phenotype / effect on improving Tcm percentage: relative to vehicle. From the text:
(§1) Fresh leukopaks (AllCells, Alameda, Calif.; Key Biologics, Memphis, Tenn.) were obtained from healthy donors, from which T cells were negatively selected using, for example, the EasySep Human T Cell Enrichment Kit (Stem Cell Technologies, Vancouver, Canada). The freshly isolated T cells were aliquoted and cryopreserved. On the day the assays were initiated, T cells were thawed and washed into X-Vivo 15 with supplements including IL-2 and pen/strep. Cells were dispensed into flat-bottom 384-well plates at 5×10^5 cells/ml with anti-CD3/Anti-CD28 beads. Individual compounds were added at a final concentration over the range of 10 μM to 10 nM to each well from column 3 to column 22 of each plate. Positive and negative controls were added to additional wells. Cells were incubated for about 6 days at 37 degrees with 5% CO2.
(§2) These studies were performed with T cells from healthy donors. Six days post-initiation of culture in the presence of anti-CD3/CD28 beads and compound addition, cells were harvested and stained with a fixable viability marker and fluorophore-conjugated antibodies: CD3, CD4, CD8, CD62L, CCR7, CD27, and Tim3 (BD Biosciences, San Jose, Calif.; and BioLegend, San Diego, Calif.). Fluorescent absolute counting beads (Spherotech, Lake Forest, IL) were added just prior to acquisition. Data acquisition was performed on a BD Fortessa™ X-20 (BD Biosciences) and data were analyzed using Treestar™ software (FlowJo, Ashland, Oreg.) and Spotfire (Tibco, Boston, Mass.). The expression of surface markers including CD62L, CCR7 and CD27 was used to identify naïve, stem cell memory, or central memory T cells. After the treatment with each of the compounds, the surface marker expression profile of the treated cells was evaluated along with characterization of cell proliferation and viability. Compounds were scored on expression of these individual Tcm markers as well as CD62L/CCR7 double positive cells. Gene expression scores were also obtained based on a panel of selected 12 genes (Table 2) that are maximally differentially expressed in CD8 Tcm cells relative to Tem.
The selected groups of compounds were assessed for their ability to skew T cell phenotype. […] Tcm is characterized herein by expression of both CCR7 and CD62L. The expression of either CD62L or CCR7 on T cells, as indicative of the desired T cell subsets, indicates a favorable functional characteristic for CAR-T cell therapy, and potentially other adoptive T cell therapies. The phenotypic studies use flow cytometry to measure the expression levels of these key surface proteins. Compounds were scored on expression of these individual Tcm markers as well as CD62L/CCR7 double positive cells (FIG. 1A). The scores in FIG. 1A were generated using the values obtained from four donors and the formula: Score=Normalized StDev over Vehicle×Significance (−log 10(p-value))+1 Scores for other graphs in this figure used the same formula.
A general note: Flow cytometry measures light scatter and fluorescence of single cells or particles in a stream.

Assay [2] has as its system T cells from healthy donors. As to the kind of experiment: T cell viability and expansion after compound treatment. The note with it: FIGS. 2A, 2B. It counts as cell-based, human.
Source text: as §1, §2
The phenotypic studies of the surface markers also included characterization of cell viability (FIG. 2A) and cell expansion (FIG. 2B). Scores for the graphs in FIGS. 2A-B were obtained using the formula: (Test value−minimum value)/(maximum value—minimum value)×10

In assay [3] the test system is irradiated K562 cells expressing CD19 and mKate2. Put plainly: Target cell killing by compound-treated CAR-T cells (IncuCyte). It counts as cell-based, human. The settings on record: earlier time points, 24 to 65 hours; FIG. 4A.
Description: An in vitro serial killing/re-stimulation assay, where the T cells treated by each compound were evaluated for various functions, including expansion and ability to kill tumor cells expressing the target antigen in vitro over multiple rounds of exposure to and withdrawal from antigen, was used as a model system. Such assays were carried out on cells treated with or without compounds, to assess the impact of individual compounds on cell function after repeated encounter with antigen, and cell expansion or persistence in such contexts.
An in vitro serial killing/re-stimulation assay, where CAR-T cells are tested for the ability to “clear” tumor cells in vitro over multiple rounds, can be used as a model to assess CAR-T expansion in the presence of tumor cells that express the antigen recognized by the CAR.
CD8 T cells were transduced with CARs and the cells were then cryopreserved. After thawing, the CAR-T cells were co-cultured with irradiated K562 tumor cells that express transgenic mKate2, a far-red fluorescent protein, and CD19, the antigen recognized by the CAR. […]
From this, the Area Under the Curve (AUC) for CAR-T cells treated with each compound can be calculated. […] To determine the effect of compound treatment on the killing ability of CAR-T cells, the AUC relative to target cells alone was determined.
A further assay relates to Raji. Put plainly: Survival in Raji/NSG tumor model, suboptimal CAR-T dose. It counts as in vivo, NSG mice. The settings on record: 2.5×10^5 CD19 CAR-T cells; FIG. 12B; listed as PI3K inhibitor. On the procedure:
(§3) Next, an in vivo assay was conducted to further characterize CAR-T cells produced in the presence of a PI3K inhibitor or a PDK1 inhibitor for tumor clearance. NSG mice were injected with a human leukemia line, Nalm-6. Four days later, mice were treated with a suboptimal dose (3×10^5) of freshly thawed CD19 CAR-T cells generated in the presence of vehicle (“DMSO” n=8), PI3K inhibitor (n=8), or PDK1 inhibitor (n=8). Some tumor bearing mice (n=2) also received expanded T cells that were not transduced with CAR (untransduced or “UNTD”). Negative control mice (n=2, “Unmanip”) received neither tumor nor CAR T cells. […] Seven days later, a suboptimal dose (2.5×10^5) of CD19 CAR-T cells produced in the presence of DMSO, PDK1 inhibitor, or PI3K inhibitor were transferred and the survival of the tumor bearing mice was monitored.

For a further assay, the system named is CAR-T cells. As to the kind of experiment: Serial restimulation of CAR-T cells produced with vehicle, PI3K inhibitor or PDK1 inhibitor. It counts as cell-based, human. The note with it: after antigen stimulation and withdrawal, and with coated beads; FIG. 10 legend. The protocol:
At the end of the manufacturing process, the cells were frozen prior to subsequent functional analysis.
The ability of CAR-T cells produced in the presence of vehicle, PI3K inhibitor, or PDK1 inhibitor to expand through multiple rounds of antigen stimulation was measured in a serial restimulation assay, wherein cryopreserved CAR-T cells were thawed and co-cultured in the presence of antigen-bearing, irradiated target cells. Every 3 to 4 days the CAR-T and target cell ratios were readjusted to approximately 1:1. […] As an alternative to using antigen-bearing, irradiated target cells for CAR-T cell stimulation, cryopreserved CAR-T cells from three independent donors produced in the presence of vehicle, PI3Ki or PDKli were thawed in T cell growth media and subsequently assessed for expansion and survival, as measured by AUC (area under the curve) of the expansion over 14 days of stimulation with anti-CAR antibodies conjugated to beads.

A further assay concerns Nalm-6. Put plainly: Survival in Nalm6/NSG tumor model, suboptimal CAR-T dose. It counts as in vivo, NSG mice. The note with it: 3×10^5 CD19 CAR-T cells; FIG. 12A; listed as PI3K inhibitor. On the procedure: as §3

On to `C[C@@H]1CCN(C(=O)CC#N)C[C@@H]1N(C)c1ncnc2[nH]ccc12` [Compound 18, Tofacitinib], for which the “increase of IL-2 only subpopulation” value with CD8+ T cells was about 4 fold.

As to `CC1(C)O[C@@H]2C[C@H]3[C@@H]4C[C@H](F)C5=CC(=O)C=C[C@]5(C)[C@H]4[C@@H](O)C[C@]3(C)[C@]2(C(=O)CO)O1` [Compound 10, Flunisolide], the “Tcm phenotype / effect on improving Tcm percentage” value in assay [1] was “minimal effect”. Besides, in assay [2], the “cell viability and/or expansion relative to vehicle treatment” value was “enhance cell viability and/or expansion”.

With `C1=C/COCc2cc(ccc2OCCN2CCCC2)Nc2nccc(n2)-c2cccc(c2)COC/1` [Compound 17, Pacritinib], the “increase of IL-2 only subpopulation” value in the assay with CD8+ T cells is “about 11 fold”.

Turning to `Cc1ccc(-c2ncc(Cl)cc2-c2ccc(S(C)(=O)=O)cc2)cn1` [Compound 7, Etoricoxib], the “Tcm phenotype / effect on improving Tcm percentage” value in assay [1] was “minimal effect”. The “cell viability and/or expansion relative to vehicle treatment” value in assay [2] is “enhance cell viability and/or expansion”.

As to `CC(=O)OCC(=O)[C@@]1(O)[C@H](C)C[C@H]2[C@@H]3CCC4=CC(=O)C=C[C@]4(C)[C@@]3(F)[C@@H](O)C[C@@]21C` [Compound 11, Dexamethasone Acetate], in assay [1], the “Tcm phenotype / effect on improving Tcm percentage” value is recorded as “minimal effect”. For the same compound, the “cell viability and/or expansion relative to vehicle treatment” value in assay [2] is given as “enhance cell viability and/or expansion”.

As to `Cc1ccc(NC(=O)c2cccc(C(C)(C)C#N)c2)cc1Nc1ccc2ncn(C)c(=O)c2c1` [Compound 23, AZ628], the “kinetics of target cell killing compared to vehicle” value in assay [3] is “slower than for vehicle”. In addition, in the assay with CD8+ T cells, the “increase of IFNγ+ only subpopulation” value was about 116 fold and the “increase of IL-2 only subpopulation” value is recorded as about 18 fold.

As to `CC(=O)OCC(=O)[C@@]12OC3(CCCC3)O[C@@H]1C[C@H]1[C@@H]3CCC4=CC(=O)C=C[C@]4(C)[C@@]3(F)[C@@H](O)C[C@@]12C` [Compound 12, Amcinonide], in assay [1], the “Tcm phenotype / effect on improving Tcm percentage” value is “minimal effect”. Besides, the “cell viability and/or expansion relative to vehicle treatment” value in assay [2] is listed as “enhance cell viability and/or expansion”.

With `Cc1sc2c(c1C)C(c1ccc(Cl)cc1)=N[C@@H](CC(=O)Nc1ccc(O)cc1)c1nnc(C)n1-2` [Compound 1, OTX015], the “increase of total multifunctional subpopulation (at least 2 cytokines)” value with CD8+ T cells (CD8+ T cells, vs vehicle) is given as about 16 fold. For the same compound, the “increase of cells producing all three cytokines” value in the assay with CD8+ T cells (IFNγ, IL-2, TNFα) was about 13 fold. In addition, the “increase of IFNγ+ only subpopulation” value in the assay on CD8+ T cells is reported as “about 33 fold”.

Turning to `Oc1cccc(-c2nc(N3CCOCC3)c3oc4ncccc4c3n2)c1` [PI103], in the assay with Raji, the “survival of tumor bearing mice compared to DMSO treated CAR-T cells” value was “substantially improved; also recorded: improves survival”. For the same compound, the CAR-T cell expansion result in the assay with CAR-T cells is “improves CAR-T cell expansion”. The “survival of tumor bearing mice compared to DMSO generated CAR-T cells” value with Nalm-6 was “prolonged survival; also recorded: improves survival”.

Take `O=C1NCCN1CCN1CCC(c2cn(-c3ccc(F)cc3)c3ccc(Cl)cc23)CC1` [Compound 8, Sertindole]: in assay [1], the “Tcm phenotype / effect on improving Tcm percentage” value is “minimal effect”. Further, the “cell viability and/or expansion relative to vehicle treatment” value in assay [2] is “enhance cell viability and/or expansion”.

Take `CC(C)(C)c1nc(-c2cccc(NS(=O)(=O)c3c(F)cccc3F)c2F)c(-c2ccnc(N)n2)s1` [Compound 24, Dabrafenib]: the “increase of the percentage of CCR7, CD62L double positive cells (Tcm) relative to vehicle” value in assay [1] (T cells, about 6 days with anti-CD3/CD28 beads, vs DMSO) is “about 10 fold”.
